Structures can show the parent of a compound that is named as a salt. Bounds are passed on as bounds.

The target of the experiment is T1, N-terminal 6His-tagged ROCK2 catalytic domain 11-552 (Homo sapiens, UniProt O75116).
T1 construct: N-terminal 6His-tagged ROCK2 catalytic domain 11-552; 6His (N); purchased Dundee University, UK; host or cells: baculovirus expression system
T1 sequence (O75116 11-552): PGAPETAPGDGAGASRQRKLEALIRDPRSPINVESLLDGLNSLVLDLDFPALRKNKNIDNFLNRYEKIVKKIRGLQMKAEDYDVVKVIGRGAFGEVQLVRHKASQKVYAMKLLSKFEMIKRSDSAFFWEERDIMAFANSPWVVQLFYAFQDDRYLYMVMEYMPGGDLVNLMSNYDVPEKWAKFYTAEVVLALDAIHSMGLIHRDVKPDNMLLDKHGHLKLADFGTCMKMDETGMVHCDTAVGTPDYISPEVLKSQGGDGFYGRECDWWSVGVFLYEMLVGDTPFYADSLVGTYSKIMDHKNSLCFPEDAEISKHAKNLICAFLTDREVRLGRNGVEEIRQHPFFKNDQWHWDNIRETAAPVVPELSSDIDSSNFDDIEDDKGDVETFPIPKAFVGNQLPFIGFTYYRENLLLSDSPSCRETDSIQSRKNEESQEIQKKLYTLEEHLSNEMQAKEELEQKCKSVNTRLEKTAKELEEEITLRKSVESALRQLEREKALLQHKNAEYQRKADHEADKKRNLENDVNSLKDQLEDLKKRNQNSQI
As to the kind of experiment: ROCK2 binding activity: ROCK2 inhibition, ADP-Glo Kinase Assay. Type of experiment: biochemical. The settings on record: 1.25 nM ROCK2, 100 μM long S6 peptide, 20 μM ATP; 1 hour pre-incubation; read-out: ADP-Glo kinase activity assay ROCK2 Category. How it is done:
Assay for ROCK2 inhibition was performed using the protein construct N-terminal 6His-tagged ROCK2 catalytic domain 11-552 (Dundee University, UK). Protein was purified from a baculovirus expression system. Long S6 peptide ([…]) was used as substrate. Kinase reactions were carried out in 15 μl volume in a 96-well plate (black, half area) using 1.25 nM constitutively active ROCK2 kinase, 100 μM long S6 peptide, 20 μM ATP and test compound in DMSO (or DMSO only for controls). The final concentration of DMSO was 1%. Assay buffer was 50 mM HEPES pH 7.5 supplemented with 0.2 mM EDTA, 10 mM magnesium acetate, 0.01% Tween-20, 1 mM DTT and 0.01% BSA. Test compounds were pre-incubated with ROCK2 kinase for 1 hour before addition of ATP and long S6 peptide. After incubation for a further 1 hour, the amount of ADP produced was measured using ADP-Glo Kinase Assay (Promega) as per manufacturer's instructions. The luminescence was measured on a PHERAstar FS (BMG Labtech). The concentration of test compound required to inhibit ADP production by 50% (the IC50) was calculated using a four-parameter logistic function with software by Dotmatics.
The category “+” refers to compounds with a ROCK2 IC50 value of >10 μM. The category “++” refers to compounds with a ROCK2 IC50 value of 10 to 3 μM. The category “+++” refers to compounds with a ROCK2 IC50 value of 3 to 0.3 μM. The category “++++” refers to compounds with a ROCK2 IC50 value of <0.3 μM.
Background: ADP-Glo first removes unused ATP, then detects ADP through luciferase.
`COc1ccc(-c2nnc(Nc3ccc4[nH]ncc4c3)[nH]2)cc1` [Example 1, N-[5-(4-Methoxyphenyl)-4H-1,2,4-triazol-3-yl]-1H-indazol-5-amine dihydrochloride]: the IC50 is 300 to 3000 nM.

On to `COc1cccc(-c2nnc(Nc3ccc4[nH]ncc4c3)[nH]2)c1` [Example 2], for which the IC50 fell in the range of 300 to 3000 nM.

On to `COc1cc(OC)cc(-c2nnc(Nc3ccc4[nH]ncc4c3)[nH]2)c1` [Example 3], for which the IC50 is 300 to 3000 nM.

As for `COc1ccccc1-c1nnc(Nc2ccc3[nH]ncc3c2)[nH]1` [Example 4], the IC50 is over 10000 nM.

With `COc1ccc(-c2nnc(Nc3ccc4[nH]nc(C)c4c3)[nH]2)cc1` [Example 5], the IC50 fell in the range of 3000 to 10000 nM.

For the compound `CC(C)NC(=O)COc1cccc(-c2nnc(Nc3ccc4[nH]ncc4c3)[nH]2)c1` [Example 6], the IC50 was under 300 nM.

On to `CC(C)NC(=O)COc1ccc(-c2nnc(Nc3ccc4[nH]ncc4c3)[nH]2)cc1` [Example 7], for which the IC50 was under 300 nM.

For `COc1cc(-c2nnc(Nc3ccc4[nH]ncc4c3)[nH]2)ccc1OCC(=O)NC(C)C` [Example 8], the IC50 was under 300 nM.

Consider `CNC(=O)COc1ccc(-c2nnc(Nc3ccc4[nH]ncc4c3)[nH]2)cc1OC` [Example 9], for which the IC50 fell in the range of 300 to 3000 nM.

For `Cc1cc(-c2nnc(Nc3ccc4[nH]ncc4c3)[nH]2)ccc1OCC(=O)NC(C)C` [Example 10], the IC50 is under 300 nM.

For `CC(C)NC(=O)COc1ccc(-c2nc(Nc3ccc4[nH]ncc4c3)n[nH]2)cc1F` [Example 12, 2-[2-fluoro-4-[5-(1H-indazol-5-ylamino)-4H-1,2,4-triazol-3-yl]phenoxy]-N-isopropyl-acetamide], the IC50 is under 300 nM.

On to `c1ccc(COc2ccc(-c3nnc(Nc4ccc5[nH]ncc5c4)[nH]3)cc2)cc1` [Example 13], for which the IC50 fell in the range of 300 to 3000 nM.

Consider `CC(C)NC(=O)COc1ccc(-c2nnc(Nc3ccc4[nH]ncc4c3)[nH]2)cc1C#N` [Example 14], for which the IC50 is under 300 nM.

Take `CC(C)NC(=O)COc1ccc(-c2nnc(Nc3ccc4[nH]ncc4c3)[nH]2)cc1CN` [Example 15]: the IC50 was in the range of 300 to 3000 nM.

Regarding `CC(C)NC(=O)Cn1cc(-c2nnc(Nc3ccc4[nH]ncc4c3)[nH]2)ccc1=O` [Example 16], the IC50 was in the range of 300 to 3000 nM.

On to `COC(=O)COc1ccc(-c2nnc(Nc3ccc4[nH]ncc4c3)[nH]2)cc1` [Example 17], for which the IC50 was under 300 nM.

`CC(C)NC(=O)C(C)Oc1ccc(-c2nnc(Nc3ccc4[nH]ncc4c3)[nH]2)cc1` (stereo not drawn) [Example 18]: the IC50 is 300 to 3000 nM.

As for `CC(C)NC(=O)C(C)(C)Oc1ccc(-c2nnc(Nc3ccc4[nH]ncc4c3)[nH]2)cc1` [Example 19], the IC50 was in the range of 300 to 3000 nM.

As for `CC(C)NC(=O)CCc1ccc(-c2nnc(Nc3ccc4[nH]ncc4c3)[nH]2)cc1` [Example 20], the IC50 lay within 300 to 3000 nM.

Turning to `CC(C)NC(=O)CCOc1ccc(-c2nnc(Nc3ccc4[nH]ncc4c3)[nH]2)cc1` [Example 21], the IC50 was 300 to 3000 nM.

Consider `NCCCOc1ccc(-c2nnc(Nc3ccc4[nH]ncc4c3)[nH]2)cc1` [Example 22], for which the IC50 lay in the range of 300 to 3000 nM.

With `CC(C)C(=O)NCCOc1ccc(-c2nnc(Nc3ccc4[nH]ncc4c3)[nH]2)cc1` [Example 23], the IC50 lay in the range of 300 to 3000 nM.

On to `NCCOc1ccc(-c2nnc(Nc3ccc4[nH]ncc4c3)[nH]2)cc1` [Example 24], for which the IC50 fell in the range of 300 to 3000 nM.

Regarding `CC(C)NC(=O)COc1ccc(-c2nnc(Nc3ccc4[nH]ncc4c3)[nH]2)c(F)c1` [Example 25], the IC50 lay in the range of 300 to 3000 nM.

For `Cc1cc(OCC(=O)NC(C)C)ccc1-c1nnc(Nc2ccc3[nH]ncc3c2)[nH]1` [Example 26], the IC50 was under 300 nM.

For `COc1cc(OCC(=O)NC(C)C)ccc1-c1nnc(Nc2ccc3[nH]ncc3c2)[nH]1` [Example 27], the IC50 was in the range of 300 to 3000 nM.

Turning to `CC(C)NC(=O)Cn1ccc(-c2nnc(Nc3ccc4[nH]ncc4c3)[nH]2)cc1=O` [Example 28], the IC50 was 3000 to 10000 nM.

With `CC(C)NC(=O)COc1ccc(-c2nnc(Nc3ccc4[nH]ncc4c3)[nH]2)cn1` [Example 29], the IC50 is 300 to 3000 nM.

As for `CC(C)NC(=O)COc1ccc(-c2nnc(Nc3ccc4[nH]ncc4c3Cl)[nH]2)cc1` [Example 30], the IC50 was under 300 nM.

For the compound `O=C(O)COc1ccc(-c2nnc(Nc3ccc4[nH]ncc4c3)[nH]2)cc1` [Example 31], the IC50 is 300 to 3000 nM.

Turning to `CC(C)C(=O)NCCCOc1ccc(-c2nnc(Nc3ccc4[nH]ncc4c3)[nH]2)cc1` [Example 32], the IC50 was under 300 nM.

With `CC(C)NC(=O)CCn1ccc(-c2nnc(Nc3ccc4[nH]ncc4c3)[nH]2)cc1=O` [Example 33], the IC50 was over 10000 nM.

On to `CC(C)NC(=O)OCc1ccc(-c2nnc(Nc3ccc4[nH]ncc4c3)[nH]2)cc1` [Example 34], for which the IC50 was under 300 nM.

In the case of `CC(C)NC(=O)CCn1cc(-c2nnc(Nc3ccc4[nH]ncc4c3)[nH]2)ccc1=O` [Example 35], the IC50 was in the range of 300 to 3000 nM.

Take `CC(C)NC(=O)COc1c(F)cc(-c2nnc(Nc3ccc4[nH]ncc4c3)[nH]2)cc1F` [Example 36]: the IC50 lay within 300 to 3000 nM.

Consider `CS(=O)(=O)NC(=O)COc1ccc(-c2nnc(Nc3ccc4[nH]ncc4c3)[nH]2)cc1` [Example 37], for which the IC50 was 300 to 3000 nM.

With `CC(C)NC(=O)COc1ccc(-c2nnc(Nc3ccc4[nH]ncc4c3)[nH]2)cc1Cl` [Example 38], the IC50 is under 300 nM.

In the case of `Oc1ccc(-c2nnc(Nc3ccc4[nH]ncc4c3)[nH]2)cc1` [Example 39], the IC50 lay within 300 to 3000 nM.

In the case of `COc1cc(-c2nnc(Nc3ccc4[nH]ncc4c3)[nH]2)ccc1OCc1nnc(C)o1` [Example 40], the IC50 was in the range of 300 to 3000 nM.

For the compound `CC(C)NC(=O)NCc1ccc(-c2nnc(Nc3ccc4[nH]ncc4c3)[nH]2)cc1` [Example 41], the IC50 lay in the range of 3000 to 10000 nM.

With `CCc1cc(-c2nnc(Nc3ccc4[nH]ncc4c3)[nH]2)ccc1OCC(=O)NC(C)C` [Example 42], the IC50 is under 300 nM.

On to `CCNC(=O)c1ccc(-c2nc(Nc3ccc4[nH]ncc4c3Cl)n(C)n2)cc1F` [Example 43, 4-[5-[(4-chloro-1H-indazol-5-yl)amino]-1-methyl-1,2,4-triazol-3-yl]-N-ethyl-2-fluoro-benzamide], for which the IC50 is under 300 nM.

Regarding `COc1cc(-c2nc(Nc3ccc4[nH]ncc4c3)n(C)n2)ccc1OCC(=O)NC1CNC1` [Example 45], the IC50 was under 300 nM.

Take `COc1cc(-c2nc(N(C)c3ccc4[nH]ncc4c3)n(C)n2)ccc1OCC(=O)NC(C)C` [Example 46]: the IC50 was over 10000 nM.

For the compound `CN1CCc2cc(-c3nc(Nc4ccc5[nH]ncc5c4)n(C)n3)ccc2C1=O` [Example 47], the IC50 was under 300 nM.

With `COc1cc(-c2nc(Nc3ccc4[nH]ncc4c3Cl)n(C)n2)ccc1OCC(=O)NC1CNC1` [Example 48], the IC50 was under 300 nM.

Take `COc1cc(-c2nc(Nc3ccc4[nH]ncc4c3Cl)n(C)n2)ccc1OCC(=O)NC1CCNC1` (stereo not drawn) [Example 49]: the IC50 was under 300 nM.

Regarding `COc1cc(-c2nc(Nc3ccc4[nH]ncc4c3Cl)n(C)n2)ccc1OCC(=O)NC1(CO)CCCC1` [Example 50], the IC50 was under 300 nM.

`COc1cc(-c2nc(Nc3ccc4[nH]ncc4c3Cl)n(C)n2)ccc1OCC(=O)NC1CCOC1` (stereo not drawn) [Example 51]: the IC50 is under 300 nM.

On to `CC(C)NC(=O)COc1ccc(-c2nc(Nc3ccc4[nH]ncc4c3Cl)n(C)n2)cc1N1CCOCC1` [Example 52], for which the IC50 was in the range of 300 to 3000 nM.

Regarding `CC(C)NC(=O)N1CCc2cc(-c3nc(Nc4ccc5[nH]ncc5c4Cl)n(C)n3)ccc2C1` [Example 54], the IC50 is under 300 nM.

Source of the values: patent US11497751B2, “Modulators of Rho-associated protein kinase” (Redx Pharma PLC, priority 2018, dated 2022).
